In patent US20160367623A1, “AGONISTS OF GUANYLATE CYCLASE USEFUL FOR THE TREATMENT OF GASTROINTESTINAL DISORDERS, INFLAMMATION, CANCER AND OTHER DISORDERS” (priority 2015, published 2016):
Bridge positions count the residues as written; N and C are the ends. Ends that are not written are not given here.

Test system: patients with chronic idiopathic constipation (CIC)
Assay: Second phase 3 CIC trial: change from baseline in stool consistency (BSFS)
Format: in vivo, human
Conditions: 6 mg
[1] = Post-Treatment Week 14, ITT Population-Excluding Duplicate Patients
[2] = Week 1, All Randomized (includes Duplicate Patients)
[3] = Week 1, ITT Population-Excluding Duplicate Patients
[4] = Week 2, All Randomized (includes Duplicate Patients)
[5] = Week 2, ITT Population-Excluding Duplicate Patients
[6] = Week 3, All Randomized (includes Duplicate Patients)
[7] = Week 3, ITT Population-Excluding Duplicate Patients
[8] = Week 4, All Randomized (includes Duplicate Patients)
[9] = Week 4, ITT Population-Excluding Duplicate Patients
[10] = Week 5, All Randomized (includes Duplicate Patients)
[11] = Week 5, ITT Population-Excluding Duplicate Patients
[12] = Week 6, All Randomized (includes Duplicate Patients)
[13] = Week 6, ITT Population-Excluding Duplicate Patients
[14] = Week 7, All Randomized (includes Duplicate Patients)
[15] = Week 7, ITT Population-Excluding Duplicate Patients
[16] = Week 8, All Randomized (includes Duplicate Patients)
[17] = Week 8, ITT Population-Excluding Duplicate Patients

Asn^1-Asp^2-Glu^3-Cys^4-Glu^5-Leu^6-Cys^7-Val^8-Asn^9-Val^10-Ala^11-Cys^12-Thr^13-Gly^14-Cys^15-Leu^16 (NDECELCVNVACTGCL; disulfide 4-12, 7-15) [Plecanatide, uroguanylin analogue, guanylate cyclase-C agonist; (C4:C12, C7:C15) bicycle peptide]
Change from Baseline in Stool Consistency, LS Mean (SE) [1]: 1.07 (0.074)
Change from Baseline in Stool Consistency, Mean (SD) [1]: 1.05 (1.358)
Change from Baseline in Stool Consistency, Difference from Placebo [2]: 0.84
Change from Baseline in Stool Consistency, LS Mean (SE) [2]: 1.41 (0.071)
Change from Baseline in Stool Consistency, Mean (SD) [2]: 1.43 (1.501)
Change from Baseline in Stool Consistency, Difference from Placebo (Week 1, ITT Population): 0.84
Change from Baseline in Stool Consistency, LS Mean (SE) (Week 1, ITT Population): 1.44 (0.073)
Change from Baseline in Stool Consistency, Mean (SD) (Week 1, ITT Population): 1.45 (1.501)
Change from Baseline in Stool Consistency, Difference from Placebo [3]: 0.86
Change from Baseline in Stool Consistency, LS Mean (SE) [3]: 1.47 (0.073)
Change from Baseline in Stool Consistency, Mean (SD) [3]: 1.47 (1.495)
Change from Baseline in Stool Consistency, Difference from Placebo [4]: 0.67
Change from Baseline in Stool Consistency, LS Mean (SE) [4]: 1.36 (0.071)
Change from Baseline in Stool Consistency, Mean (SD) [4]: 1.36 (1.560)
Change from Baseline in Stool Consistency, Difference from Placebo (Week 2, ITT Population): 0.68
Change from Baseline in Stool Consistency, LS Mean (SE) (Week 2, ITT Population): 1.39 (0.073)
Change from Baseline in Stool Consistency, Mean (SD) (Week 2, ITT Population): 1.38 (1.560)
Change from Baseline in Stool Consistency, Difference from Placebo [5]: 0.68
Change from Baseline in Stool Consistency, LS Mean (SE) [5]: 1.41 (0.074)
Change from Baseline in Stool Consistency, Mean (SD) [5]: 1.39 (1.562)
Change from Baseline in Stool Consistency, Difference from Placebo [6]: 0.53
Change from Baseline in Stool Consistency, LS Mean (SE) [6]: 1.41 (0.072)
Change from Baseline in Stool Consistency, Mean (SD) [6]: 1.44 (1.479)
Change from Baseline in Stool Consistency, Difference from Placebo (Week 3, ITT Population): 0.54
Change from Baseline in Stool Consistency, LS Mean (SE) (Week 3, ITT Population): 1.44 (0.074)
Change from Baseline in Stool Consistency, Mean (SD) (Week 3, ITT Population): 1.46 (1.480)
Change from Baseline in Stool Consistency, Difference from Placebo [7]: 0.55
Change from Baseline in Stool Consistency, LS Mean (SE) [7]: 1.46 (0.074)
Change from Baseline in Stool Consistency, Mean (SD) [7]: 1.47 (1.485)
Change from Baseline in Stool Consistency, Difference from Placebo [8]: 0.54
Change from Baseline in Stool Consistency, LS Mean (SE) [8]: 1.41 (0.071)
Change from Baseline in Stool Consistency, Difference from Placebo (Week 4, ITT Population): 0.52
Change from Baseline in Stool Consistency, LS Mean (SE) (Week 4, ITT Population): 1.42 (0.074)
Change from Baseline in Stool Consistency, Mean (SD) (Week 4, ITT Population): 1.42 (1.603)
Change from Baseline in Stool Consistency, Difference from Placebo [9]: 0.53
Change from Baseline in Stool Consistency, LS Mean (SE) [9]: 1.44 (0.074)
Change from Baseline in Stool Consistency, Mean (SD) [9]: 1.42 (1.608)
Change from Baseline in Stool Consistency, Difference from Placebo [10]: 0.67
Change from Baseline in Stool Consistency, LS Mean (SE) [10]: 1.52 (0.072)
Change from Baseline in Stool Consistency, Difference from Placebo (Week 5, ITT Population): 0.68
Change from Baseline in Stool Consistency, LS Mean (SE) (Week 5, ITT Population): 1.55 (0.074)
Change from Baseline in Stool Consistency, Mean (SD) (Week 5, ITT Population): 1.57 (1.594)
Change from Baseline in Stool Consistency, Difference from Placebo [11]: 0.69
Change from Baseline in Stool Consistency, LS Mean (SE) [11]: 1.58 (0.075)
Change from Baseline in Stool Consistency, Mean (SD) [11]: 1.58 (1.598)
Change from Baseline in Stool Consistency, Difference from Placebo [12]: 0.70
Change from Baseline in Stool Consistency, LS Mean (SE) [12]: 1.51 (0.072)
Change from Baseline in Stool Consistency, Difference from Placebo (Week 6, ITT Population): 0.72
Change from Baseline in Stool Consistency, LS Mean (SE) (Week 6, ITT Population): 1.55 (0.074)
Change from Baseline in Stool Consistency, Mean (SD) (Week 6, ITT Population): 1.57 (1.517)
Change from Baseline in Stool Consistency, Difference from Placebo [13]: 0.74
Change from Baseline in Stool Consistency, LS Mean (SE) [13]: 1.57 (0.075)
Change from Baseline in Stool Consistency, Mean (SD) [13]: 1.58 (1.520)
Change from Baseline in Stool Consistency, Difference from Placebo [14]: 0.64
Change from Baseline in Stool Consistency, LS Mean (SE) [14]: 1.50 (0.072)
Change from Baseline in Stool Consistency, Difference from Placebo (Week 7, ITT Population): 0.64
Change from Baseline in Stool Consistency, LS Mean (SE) (Week 7, ITT Population): 1.54 (0.074)
Change from Baseline in Stool Consistency, Mean (SD) (Week 7, ITT Population): 1.56 (1.540)
Change from Baseline in Stool Consistency, Difference from Placebo [15]: 0.67
Change from Baseline in Stool Consistency, LS Mean (SE) [15]: 1.56 (0.075)
Change from Baseline in Stool Consistency, Mean (SD) [15]: 1.57 (1.544)
Change from Baseline in Stool Consistency, Difference from Placebo [16]: 0.57
Change from Baseline in Stool Consistency, LS Mean (SE) [16]: 1.48 (0.072)
Change from Baseline in Stool Consistency, Difference from Placebo (Week 8, ITT Population): 0.58
Change from Baseline in Stool Consistency, LS Mean (SE) (Week 8, ITT Population): 1.51 (0.074)
Change from Baseline in Stool Consistency, Mean (SD) (Week 8, ITT Population): 1.53 (1.539)
Change from Baseline in Stool Consistency, Difference from Placebo [17]: 0.60
Change from Baseline in Stool Consistency, LS Mean (SE) [17]: 1.53 (0.075)
Change from Baseline in Stool Consistency, Mean (SD) [17]: 1.54 (1.543)
Change from Baseline in Stool Consistency, Difference from Placebo (Week 9, All Randomized (includes Duplicate Patients)): 0.67
